PMC12703741, “Light-Activated Metal-Dependent Protein Degradation: A Heterobifunctional Ruthenium(II) Photosensitizer Targeting New Delhi Metallo-β-lactamase 1” (Journal of the American Chemical Society, 2025)
Like-named read-outs stand apart in the source and are kept apart here.

Columns and labels:
[1] = archetypal comparison complex; cited from earlier work
[2] = parameters: method as in earlier work; conditions: reference for 1O2 sensitization; ref 4 (SI), Tanielian et al., 1996; cited from earlier work
NDM-1 [3] = target: T1, NDM-1 (Klebsiella pneumoniae, UniProt C7C422); conditions: read-out: Km(Nitrocefin); NDM-1 2 nM, 25 °C
T1 sequence (C7C422 31-270 limits assumed): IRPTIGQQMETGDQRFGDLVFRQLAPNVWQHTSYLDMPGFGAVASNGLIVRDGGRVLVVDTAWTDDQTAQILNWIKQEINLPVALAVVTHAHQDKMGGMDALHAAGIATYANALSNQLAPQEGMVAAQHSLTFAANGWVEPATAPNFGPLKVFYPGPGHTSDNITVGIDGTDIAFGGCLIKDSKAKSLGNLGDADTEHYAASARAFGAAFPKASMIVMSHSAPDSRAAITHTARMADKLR
Excerpt: (4 pictures or pasted objects on this page, not shown here)

NDM-1 [4] = target: T1, NDM-1; conditions: read-out: Km(Nitrocefin); previously reported; ref 5 (SI); cited from earlier work

Row | SMILES | Luminescence lifetime of excited state [1] [ns] | 1O2 quantum yield (ΦΔ) [2] | Km (NDM-1 [3]) [µM] | Km (NDM-1 [4]) [µM]
1 | [Cl][Ru][Cl].c1ccc(-c2ccccn2)nc1.c1ccc(-c2ccccn2)nc1.c1ccc(-c2ccccn2)nc1 [[Ru(bpy)3]Cl2, tris(2,2’-bipyridyl)ruthenium(II) dichloride] | 510 | 0.87 | – | –
2 | O=C(Cc1cccs1)N[C@@H]1C(=O)N2C(C(=O)O)=C(/C=C/c3ccc([N+](=O)[O-])cc3[N+](=O)[O-])CS[C@H]12 [nitrocefin] | – | – | 3.1 ± 0.5 | 3.2
